Laboratory results taken from a melting point compilation (Tetko et al.; mined from patent text by program, amines drawn as free bases though some values may be those of a salt).
Residues, ends and D or L forms follow the SMILES beside them. *: point of attachment. Cbz = O=C(OCc1ccccc1)*

Row | Structure (SMILES) | melting point
1 | Cc1c(Cc2ccc(Cl)cc2)sc2nc(N)[nH]c(=O)c12 | 300 to 320 °C
2 | N#CC(N)=C(C#N)N=Cc1nn(-c2c(Cl)cc(C(F)(F)F)cc2Cl)nc1C(F)(F)F | 218 to 220 °C
3 | CCOC(=O)c1ccc(-c2cnc(-c3ccc(C(F)(F)F)cc3)o2)cc1 | 142 to 143 °C
4 | CN1C(=O)c2cccnc2Nc2cc(C(F)(F)F)ccc21 | 169 to 172 °C
5 | CN1C(=O)Cc2ccsc2S1(=O)=O | 136 to 137 °C
6 | O=C(c1cccnc1)N1N=CCC1c1ccccc1 (stereo not given) | 100 to 102 °C
7 | CCCOCc1ccc(C#CC2(O)CN3CCC2CC3)cc1 (stereo not given) | 140 to 141 °C
8 | CCN(CC)C(=O)CCC1CCN(Cc2cnc3cc(NC(=O)c4ccc(-c5ccc(F)cc5)cc4)c(C)cc3c2)CC1 | 150 to 154 °C
9 | CCCCCCCCCCCCCCC(CCCCCC(=O)O)CCCCCC(=O)O | 48 to 50 °C
10 | CC(C)(C)C1CC(CCC(=O)O)(CCC(=O)O)C(=O)C(CCC(=O)O)(CCC(=O)O)C1 | 209 to 212 °C
11 | COc1cc(OC)c2c(=O)[nH]c(-c3ccc(OC)c(N4CCN(C(C)C)CC4)n3)nc2c1 | 208 to 210 °C
12 | O=C(CCc1ccccc1)N[C@H](Cc1ccc(C(F)(F)F)cc1)[C@@H](O)c1ccc(F)cc1F (racemic) | 126 to 127 °C
13 | O=[N+]([O-])c1ccc(S(=O)(=O)On2nnc3ccccc32)cc1 | 120 to 122 °C
14 | C1COCCN2CCSCCSCCN(CCO1)CCSCCSCC2 | 86 °C
15 | COc1cc(COc2nn(-c3ccccc3)cc2/C=C2\SC(=O)NC2=O)ccc1OCc1nc(-c2ccco2)oc1C | 252 to 253 °C
16 | CC(=O)OC(c1ccc(Cl)c2nc3n(c12)CCCN3c1ccc(Cl)cc1Cl)C1CC1 (stereo not given) | 208 to 210 °C
17 | Cc1ccc(Nc2nnc(-c3ccc(N4CCOCC4)c([N+](=O)[O-])c3)s2)cc1Cl | 268 to 269 °C
18 | O=C(c1ccccc1)n1c2c(c3ccccc31)CC(C(=O)O)(C(=O)O)CC2 | 160 °C
19 | CCCc1c(OCCCCCCc2cccc(OCCCCCCC(=O)O)c2CCC(=O)O)ccc2c1OCCC2=O | 91 to 93 °C
20 | N#Cc1nc(F)c(F)c(F)c1Cl | 41.5 to 43 °C
21 | Cc1nc(-n2ccn(Cc3ccc(C(F)(F)F)cc3)c2=O)sc1C(=O)NCc1cccnc1 | 163 to 164 °C

Row | Structure (SMILES) | melting point
22 | CCCCc1nc(-c2ccco2)c2ncn(Cc3ccc(OC)cc3)c2n1 | 103 °C
23 | N#CC1(Nc2ccccc2)CCN(C2C3CCCC2CCC3)CC1 (stereo not given) | 168 °C
24 | O=c1c2c(c3cccnc3n1-c1ccccc1)SCC2 | 277 to 279 °C
25 | Cc1oc(-c2ccccc2)nc1COc1ccc(OCc2ncccc2CC#N)cc1 | 134 to 135 °C
26 | COc1ccc(-c2cc(SC(F)(F)F)[nH]c2-c2ccc(OC)cc2)cc1 | 114 to 115 °C
27 | CCN1C=C(N=[N+]=[N-])N=C(C2CC2)c2ccccc21 | 158 to 160 °C
28 | N#CC(Sc1ccccc1)=C1SCCN1c1ccccc1 | 143 to 145 °C
29 | CC(C)(C)OC(=O)CNc1nc(NCc2ccc(NC(=O)c3ccc(F)cc3)cc2)c2ccccc2n1 | 96 °C
30 | Cc1ccc(C(=O)C2(n3ccnc3)CC2)cc1 | 88 to 90 °C
31 | CC1(C)CNC(=O)C(=O)N1c1cc(F)cc2ccoc12 | 162 to 165 °C
32 | CC(C)S(=O)(=O)c1cc(OCc2ccc(S(C)(=O)=O)cn2)c2[nH]nc(Nc3nccs3)c2c1 | 160 to 161 °C
33 | CNc1c(NCCSCc2ccc(CN(C)C)s2)c(=O)c1=O | 185 to 187 °C
34 | COc1cc2c(c(OC)c1OC)C(CN1CCC(c3noc4cc(F)ccc34)CC1)=C2 | 141 to 143 °C
35 | O=c1n(CCN2CCN(c3ccc4cc[nH]c4c3)CC2)c2ccccc2n1C1=CCCCC1 | 171 to 173 °C
36 | OCC1CC(n2c(Br)nc3cc(Cl)c(Cl)cc32)C(O)C1O (stereo not given) | 208 to 211 °C
37 | CCN(CCO)CCCC1CCN(S(=O)(=O)c2ccc(C(F)(F)F)cc2)CC1 | 71.3 to 72.7 °C
38 | [N-]=[N+]=C1C(=O)Nc2cccc(Cl)c21 | 214 to 215 °C
39 | CC1(C)OC(C=Cc2ccc(C(F)(F)F)cc2)=CC1=O | 94 to 95 °C
40 | NS(=O)(=O)c1cccc(NC(=O)c2cnn3c(C(F)(F)F)cc(-c4ccc(C(F)(F)F)c(OCC(F)(F)F)c4)nc23)c1 | 233 °C
41 | O=C(OCc1cc(-c2ccccc2)c(=O)n2c1-c1sccc1CN2)N1CCOCC1 | 207 to 210 °C
42 | COc1cc(I)c(CC(C)N2CCCC2)cc1OC (stereo not given) | 87 to 88 °C

Second part, the compound after the results:

Row | melting point | Structure (SMILES)
43 | 101 to 102 °C | CCCOc1cc(C(=O)O)cc(N)c1-c1ccccc1
44 | 88 to 90 °C | C=C(C)C(=O)Oc1ccccc1NS(C)(=O)=O
45 | 153 to 154 °C | CC(=O)c1ccc(OCc2cccc(N)c2)cc1O
46 | 160 to 162 °C | CCOC(=O)NNc1ccc(N(CC)CC(C)O)nn1 (stereo not given)
47 | 202 °C | CNN(NC)C(=O)Nc1cccc2c1C(=O)c1c-2n[nH]c1-c1ccsc1
48 | 69 to 70 °C | CCCCOc1c(C#N)c(C#N)c(OCCCC)c2ccccc12
49 | 91 to 93 °C | COC(=O)[C@H](Cc1ccccc1)NC(=O)[C@H](CC(C)C)NC(=O)OCc1ccccc1 (Cbz-Leu-Phe-OMe)
50 | 60 to 62 °C | CC(C)(C)c1cn2cccc(C=O)c2n1
51 | 119 to 125 °C | O=C(NCC1CCCC1)c1ccc2c(Br)n[nH]c2c1
52 | 183 to 184 °C | Cc1nc(-n2ccc(OCc3ccccc3)cc2=O)[nH]c1C(=O)NCc1ccccc1
53 | 74 to 75.5 °C | CCOC(=O)c1csnc1-c1ccc(OC)c(OC)c1
54 | 202 to 205 °C | COc1ccc2ncc3ncn(-c4ccccc4Cl)c3c2c1
55 | 79 to 81 °C | COC(=O)/C(C)=C/COc1cccc(O)c1
56 | 161 to 164 °C | CNc1cc(Oc2ccc(NC(=O)Nc3ccc(Br)c(C(F)(F)F)c3)cc2)ncn1
57 | 261 to 263 °C | COc1cc(O)cc2oc(=O)cc(C)c12
58 | 228 to 230 °C | CCc1cccc(C)c1CNc1cc(C(=O)N(C)C)cc2[nH]c(C)nc12
59 | 148 to 150 °C | COc1ccc(O)c(C2(CCCCSC)Sc3ccccc3N(C)C2=O)c1 (stereo not given)
60 | 100 to 101 °C | Cc1cc(O)c(SCCc2ccccc2)c(=O)o1
61 | 157 to 158 °C | CCOC(=O)C(=CNc1c(C#N)cnn1-c1ccc(Cl)c(Cl)c1Cl)C(=O)OCC
62 | 49.5 to 50 °C | CCCCCCCCCCCCOC(C)c1ccc(C(=O)O)cc1 (single isomer, unassigned; (+))

Row | melting point | Structure (SMILES)
63 | 222 to 224 °C | CC1=NN(c2ccc(Cl)cc2)C(c2ccc(NC(=O)c3cccc(I)c3C(=O)NC(C)C)c(C)c2)C1 (stereo not given)
64 | 61.5 to 63.5 °C | O=C(c1ccccc1)c1cnc2c(n1)CCCC2
65 | 136 to 137 °C | Cc1cc(C(=O)c2ccccc2C(F)(F)F)c(N)s1
66 | 190 to 192 °C | Cc1cc(C)nc(NC(=O)NS(=O)(=O)c2ccsc2C2=CC(=O)CCC2)n1
67 | 243 to 245 °C | COc1ccc(C2Sc3cc(Oc4ccc(Cl)cc4)ccc3NC(=O)C2O)cc1 (stereo not given)
68 | 140 to 141 °C | CC(=O)Nc1ccc(OCC(F)(F)F)cc1
69 | 144 to 146 °C | CC(=O)NC[C@H]1CN(c2ccc(C3CCN(C(=O)O)CC3)c(F)c2)C(=O)O1
70 | 125 to 128 °C | CC(C)(C)c1ccc(Nc2cccc(Br)n2)c(N)c1
71 | 166 to 167 °C | CCCN(Cc1cccc(C(=N)N)c1)C(=O)Nc1ccc(-c2ccccc2S(N)(=O)=O)cc1
72 | 33.5 to 35 °C | COC(=O)CCCCCCC1C(=O)Cc2cc(OC)ccc21 (stereo not given)
73 | 220 to 222 °C | CCOC(=O)c1cn(C2COC2)c2cc(F)c(F)c(OCc3ccccc3)c2c1=O
74 | 173 to 174 °C | COc1cc(O)c2c(c1)C1OC1CC(O)C(O)C(=O)C=CCC(C)OC2=O (stereo not given)
75 | 133 to 134 °C | COC(=O)C(=O)c1ccc(OCCOc2ccc3ccccc3c2)c(Cl)c1
76 | 182 to 183 °C | COc1ccc(Cn2c(=O)c(NN)nc3ccc4ccccc4c32)c(OC)c1
77 | 90 to 92 °C | CCCNC1CN(C(=O)Nc2ccc(C(F)(F)F)cc2)N=C1c1ccc(OC(F)F)c(C)c1 (stereo not given)
78 | 66 to 67 °C | COCOc1ccc(C=O)c(Cl)c1OCc1ccccc1
79 | 138 to 140 °C | COc1cc(C(C)=O)ccc1OCCC(C)N1CCN(c2nn(C(=O)c3ccccc3)c3cc(F)ccc23)CC1 (stereo not given)
80 | 281 to 282 °C | COc1cc2c(cc1S(=O)(=O)c1ccc(Br)cc1)[C@@H](N1CCCC1=O)[C@H](O)C(C)(C)O2 (relative stereo)
81 | 96 to 98 °C | COCC(=O)c1cnc2c(OC)cccc2c1Cl
82 | 40 to 43 °C | COC(=O)c1cccc(S(=O)(=O)N(C)C)c1C

Row | melting point | Structure (SMILES)
83 | 112 to 115 °C | COc1ccc2cc(C(C)COS(N)(=O)=O)ccc2c1 (stereo not given)
84 | 232 °C | Nc1ccc(Nc2c(NCc3ccco3)cc(C(=O)O)cc2S(N)(=O)=O)cc1
85 | 114 to 115 °C | CC(=O)c1cccc2c1OC1(CC1)C2=O
86 | 135 to 136 °C | CCCN(CCC)S(=O)(=O)c1cccc(C(=O)Nc2ccc(Br)cc2C)c1
87 | 193 to 195 °C | COc1cc(C(=O)c2c[nH]c(-c3ccc(Cl)cc3)n2)cc(OC)c1OC
88 | 184 to 185 °C | CC(C)Cn1nc(-c2ccc(C(F)(F)F)cc2)cc(C(=O)O)c1=O
89 | 130 to 131 °C | COc1ccc(N(CC(O)CO)S(=O)(=O)c2c(F)c(F)c(F)c(F)c2F)cc1 (stereo not given)
90 | 195 °C | CCNc1nc(C)c(C(=O)c2ccc(Cl)c([N+](=O)[O-])c2)s1
91 | 77 to 78 °C | COC(=O)Cc1ccccc1OCc1cncc(OCc2nc(-c3ccccc3)oc2C)c1
92 | 234 to 236 °C | Cc1cccc(Sc2c(O)c3ccc(Cl)cc3[nH]c2=O)c1
93 | 109 to 110 °C | COC(=O)c1sc2ccccc2c1O
94 | 86 to 87 °C | C=CCOc1cc2c(cc1Br)CC[C@H]2CCNC(=O)CC
95 | 159 to 160 °C | CCC(=O)NCCc1ccc(OCc2ccccc2)c(OCc2ccccc2)c1CC
96 | 129 to 130 °C | O=C(O)C(=O)c1cc(F)c(OCCOc2ccc3ccccc3c2)c(F)c1
97 | 130 to 133 °C | c1cnc2[nH]c(C3CCNC3)cc2c1 (stereo not given)
98 | 124 to 126 °C | COc1ncnc(OC)c1N(C(=O)CCl)C(C)n1cccn1 (stereo not given)
99 | 147 to 150 °C | CS(=O)(=O)Nc1ccc(C(N)=O)cc1Oc1ccc(F)cc1F
100 | 235 to 237 °C | CCn1ncc2c(NCC3CCCCC3)c3cc(OC)ccc3nc21
